Measurements reported in US7901893B2, “NPC1L1 (NPC3) and methods of identifying ligands thereof” (Merck Sharp & Dohme Corp., priority 2004, dated 2011).

Assays:
[1] = biological target: T1, rhesus brush border membrane vesicles (Macaca mulatta, UniProt A0MJA5); assay: Binding assay with rhesus brush border membrane vesicles
T1 sequence (A0MJA5 1-1332): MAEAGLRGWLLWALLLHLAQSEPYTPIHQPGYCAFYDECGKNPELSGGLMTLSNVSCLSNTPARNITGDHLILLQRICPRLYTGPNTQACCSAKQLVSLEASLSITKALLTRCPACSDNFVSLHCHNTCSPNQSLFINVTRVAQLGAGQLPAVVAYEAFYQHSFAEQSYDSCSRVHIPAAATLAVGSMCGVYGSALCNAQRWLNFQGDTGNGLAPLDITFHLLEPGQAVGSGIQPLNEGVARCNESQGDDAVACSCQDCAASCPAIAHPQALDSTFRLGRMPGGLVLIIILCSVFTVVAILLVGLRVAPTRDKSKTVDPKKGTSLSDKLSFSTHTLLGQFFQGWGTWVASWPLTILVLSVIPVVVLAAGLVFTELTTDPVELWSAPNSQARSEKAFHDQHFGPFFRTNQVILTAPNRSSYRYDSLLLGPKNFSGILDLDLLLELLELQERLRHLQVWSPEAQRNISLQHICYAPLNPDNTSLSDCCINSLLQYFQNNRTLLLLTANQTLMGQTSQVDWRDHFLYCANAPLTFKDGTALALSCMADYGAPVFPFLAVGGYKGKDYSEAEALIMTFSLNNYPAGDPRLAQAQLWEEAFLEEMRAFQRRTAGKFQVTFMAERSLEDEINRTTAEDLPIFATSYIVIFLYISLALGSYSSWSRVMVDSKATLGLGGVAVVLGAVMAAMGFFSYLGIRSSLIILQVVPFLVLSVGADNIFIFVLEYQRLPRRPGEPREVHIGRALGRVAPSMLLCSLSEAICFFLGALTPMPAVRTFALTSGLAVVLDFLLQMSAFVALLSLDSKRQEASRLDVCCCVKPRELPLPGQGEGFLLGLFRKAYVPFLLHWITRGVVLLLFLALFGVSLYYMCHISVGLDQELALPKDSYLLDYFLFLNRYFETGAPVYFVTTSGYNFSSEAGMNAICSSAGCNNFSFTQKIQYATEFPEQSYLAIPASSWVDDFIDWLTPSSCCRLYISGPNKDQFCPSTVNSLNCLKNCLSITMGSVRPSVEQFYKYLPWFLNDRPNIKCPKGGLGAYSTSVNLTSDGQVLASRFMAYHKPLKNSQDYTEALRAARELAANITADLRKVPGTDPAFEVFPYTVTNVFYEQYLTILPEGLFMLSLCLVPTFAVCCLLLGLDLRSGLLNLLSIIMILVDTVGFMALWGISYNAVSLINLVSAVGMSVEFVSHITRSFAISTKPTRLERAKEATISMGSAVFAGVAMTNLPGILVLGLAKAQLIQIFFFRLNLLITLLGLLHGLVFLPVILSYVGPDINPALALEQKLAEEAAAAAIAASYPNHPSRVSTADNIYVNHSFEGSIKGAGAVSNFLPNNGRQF
Procedure: The intestines from freshly sacrificed animals were cut into segments, perfused with ice-cold saline buffer (Buffer A: 26 mM NaHCO3, 0.96 mM NaH2PO4, 5 mM HEPES, 5.5 mM glucose, 117 mM NaCl, 5.4 mM KCl, pH=7.4), placed on cold glass plates, opened longitudinally, and the mucosa scraped with glass microscope slips. This mucosa could be used fresh or frozen with identical results. To prepare the membranes, the mucosal scrapings were resuspended in 20 volumes of cold buffer consisting of 300 mM D-mannitol, 5 mM EGTA, 12 mM Tris, pH 7.4 with HCl, and containing 0.1 mM PMSF and a 1% dilution of a protease inhibitor cocktail (set 1, Calbiochem). They were homogenized using a Polytron at medium speed on ice until inspection with a microscope indicated complete cell lysis. Then, solid MgCl2 was added slowly with stirring to a final concentration of 10 mM, and the solution was kept stirring on ice for 15 min. Cellular debris was removed by centrifugation for 15 min at 3,000 g, and the membranes were recovered by centrifugation for 60 min at 48,000 g. The membranes were further rinsed by re-suspension in a buffer containing 50 mM D-mannitol, 5 mM EGTA, and 2 mM Tris at pH 7.40, and centrifugation for 60 min at 48,000 g. The final pellet was resuspended in 120 mM NaCl and 20 mM Tris at pH 7.40 to a concentration of ˜10-20 mg protein/ml, aliquoted, frozen in liquid nitrogen, and stored at −80 C. The activity was stable indefinitely and could be freeze-thawed with minimal loss of activity.
Binding assay. Assays were conducted in 12×75 mm glass test tubes and total volume 20-100 ul. In general, frozen membranes were diluted in buffer A or buffer A containing 0.03% taurocholate and 0.05% digitonin to a final concentration of 0.02 to 5 mg/ml. […] Competing ligands were likewise added as DMSO solutions to give a total 2-10% organic solvent content. […] At least 2 components of buffer A, the bicarbonate and phosphate salts, were later found to be inconsequential and were routinely omitted.
Bound ligand was quantified by single-tube vacuum filtration using GF/C glass fiber filters. […] Filtration was accomplished by adding 2.5 ml of ice cold buffer (120 mM NaCl, 0.1% sodium cholate, and 20 mM MES at pH 6.70) to the assay tube, pouring the mixture through the filter, and then rinsing the tube and filter twice more with another 2×2.5 ml buffer. The filters were counted in 7 ml vials using Packard DM liquid scintillation fluid.
Data analysis. Data from saturation experiments were subjected to a Scatchard analysis, and linear regression was performed to yield the equilibrium dissociation constant (Kd) and maximum receptor concentration (Bmax). […] Data from competition experiments were analyzed and IC50 values determined from Hill plots of the binding data.

[2] = biological target: T2, rat brush border membrane vesicles (Rattus norvegicus, UniProt Q6T3U3); assay: Binding assay with rat brush border membrane vesicles
T2 construct: from tissue; host or cells: rat (male Sprague-Dawley) small-intestinal mucosa, brush border membrane vesicles
Description: Glass fiber filters (GF/C) were obtained from Whatman.
Rate constants for binding and dissociation.
(§1) Analog structures are defined in Table 12.

rat NPC1L1 = rat NPC1L1 (Rattus norvegicus, UniProt Q6T3U3); assay: Binding to membranes of HEK-293 cells expressing recombinant rat NPC1L1; set-up: expressed in transfected cells; host or cells: HEK-293 cells (ATCC), transient, pCR3.1; membranes; details: 0.03% sodium taurocholate and 0.05% digitonin; 1.25 mg protein/ml, 100 nM 1
Procedure: (§2) Transient expression of NPC1L1. Plasmid pCR3.1 expressing rat NPC1L1 (Genbank AY437867) or human NPC1L1 (Genbank AY437865) were prepared using standard molecular biology protocols. HEK-293 cells (ATCC) were seeded at 10×10^6 cells per T-225 flask (Corning) in DMEM containing 10% fetal calf serum, 4.5 g/L D-glucose and L-glutamine, 18 hours prior to transfection. They were transiently transfected with 25 μg of DNA using Fugene transfection reagent (Roche Biochemical) at a ratio of 6:1 Fugene:DNA. Following transfection, the cells were incubated at 37° C. and 5% CO2 for 48 hours, and then harvested using PBS based cell dissociation buffer (Gibco), pelleted at 500×g, snap frozen on dry ice, and stored at −80° C.
(§3) Membrane preparation from HEK-293 cells. Membranes were prepared by resuspending the frozen cell pellets in ten volumes of 20 mM HEPES/Tris buffer at pH 7.40 containing 8% sucrose, and sonicating the suspensions with a probe sonicator on ice until most of the cells were lysed. To isolate the membranes, the sonicates were centrifuged at 1600×g for 10 min to remove cell debris, and then the supernatants were centrifuged at 125,000×g for 1 hour to recover the membranes. These membranes were resuspended in 20 mM HEPES/Tris buffer at pH 7.40 containing 160 mM NaCl and 5% glycerol, and stored at 10-20 mg/ml protein at −80° C.
as §1

human NPC1L1 = biological target: T3, human NPC1L1 (Homo sapiens, UniProt Q9UHC9, G1187D/M616T/T1073A); assay: Binding to membranes of HEK-293 cells expressing recombinant human NPC1L1; set-up: expressed in transfected cells; host or cells: HEK-293 cells (ATCC), transient, pCR3.1; membranes; details: 0.03% sodium taurocholate and 0.05% digitonin; 1.25 mg protein/ml, 100 nM 1
T3 sequence (Q9UHC9 22-1332 isoform Q9UHC9-2 M616T/T1046A/G1160D limits assumed): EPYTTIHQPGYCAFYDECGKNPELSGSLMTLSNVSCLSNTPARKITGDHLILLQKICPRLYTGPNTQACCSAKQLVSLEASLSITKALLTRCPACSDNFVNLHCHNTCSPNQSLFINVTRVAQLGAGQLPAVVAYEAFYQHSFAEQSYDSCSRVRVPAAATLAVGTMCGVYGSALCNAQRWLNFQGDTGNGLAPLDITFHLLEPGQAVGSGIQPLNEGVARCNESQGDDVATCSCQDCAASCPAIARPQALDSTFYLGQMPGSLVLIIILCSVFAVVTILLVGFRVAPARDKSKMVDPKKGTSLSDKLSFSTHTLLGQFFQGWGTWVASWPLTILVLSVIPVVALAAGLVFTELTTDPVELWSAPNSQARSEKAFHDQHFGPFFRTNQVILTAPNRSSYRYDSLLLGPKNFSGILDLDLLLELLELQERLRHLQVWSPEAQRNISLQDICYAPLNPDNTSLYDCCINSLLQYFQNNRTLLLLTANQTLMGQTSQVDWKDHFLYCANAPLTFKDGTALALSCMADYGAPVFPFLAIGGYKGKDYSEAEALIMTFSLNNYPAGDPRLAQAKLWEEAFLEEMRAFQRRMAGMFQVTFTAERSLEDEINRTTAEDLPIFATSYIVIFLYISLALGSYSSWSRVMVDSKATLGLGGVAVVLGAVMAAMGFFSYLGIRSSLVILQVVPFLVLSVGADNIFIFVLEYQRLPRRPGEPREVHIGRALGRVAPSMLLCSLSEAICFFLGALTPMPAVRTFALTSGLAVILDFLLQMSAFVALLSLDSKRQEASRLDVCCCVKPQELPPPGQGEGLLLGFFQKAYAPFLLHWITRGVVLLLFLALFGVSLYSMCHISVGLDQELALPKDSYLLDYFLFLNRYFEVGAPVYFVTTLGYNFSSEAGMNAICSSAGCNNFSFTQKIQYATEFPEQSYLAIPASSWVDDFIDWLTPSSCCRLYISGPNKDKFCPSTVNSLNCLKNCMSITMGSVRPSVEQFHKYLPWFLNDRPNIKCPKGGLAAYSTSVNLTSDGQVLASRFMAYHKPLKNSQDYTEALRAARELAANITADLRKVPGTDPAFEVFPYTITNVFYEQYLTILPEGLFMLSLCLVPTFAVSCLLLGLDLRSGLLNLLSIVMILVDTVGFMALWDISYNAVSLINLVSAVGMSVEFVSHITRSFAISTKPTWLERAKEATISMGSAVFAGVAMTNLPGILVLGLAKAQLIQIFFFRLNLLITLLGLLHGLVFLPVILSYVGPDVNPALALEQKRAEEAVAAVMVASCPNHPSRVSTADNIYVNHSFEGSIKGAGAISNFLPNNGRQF
Procedure: as §2, §3, §1

O=C(O)[C@H]1O[C@@H](Oc2ccc([C@@H]3[C@@H](CC[C@H](O)c4ccc(F)cc4)C(=O)N3c3ccc(F)cc3)c(O)c2)[C@H](O)[C@@H](O)[C@@H]1O [Compound 7]
Ki [1]: 60 nM
Ki ([2]; 0.03% sodium taurocholate and 0.05% digitonin, 1.25 mg protein/ml, 100 nM 1, read-out: Rat BBM Ki): 280 nM
IC50 ([2]; rat brush border membrane vesicles, read-out: RAT IC50 (nM), inhibition of ^3H-EZE-gluc binding): 252 nM
Ki (rat NPC1L1): 360 nM
Ki (human NPC1L1): 210 nM
